We go through 39 molecules from ChEMBL document CHEMBL4483862, “Open-source discovery of chemical leads for next-generation chemoprotective antimalarials” (2018).

Where only a bound is given, the exact number is not on record here.

For this assay, the system named is Plasmodium berghei. The assay can be described thus: Luciferase/luciferin-expressing antifolate-resistant parasites were used to infect a culture of HepG2 cells that were pre-incubated with compounds. Infected hepatocytes emit light due to the luciferase reaction. Assay results are presented as the percent inhibition of light emission compared to control. […]. The assay is classed as functional. The note with it: sporozoite; for IC90: read-out: LUCIFERASE INFECTION ASSAY - IC90.

Setting [1] is: read-out: LUCIFERASE INFECTION ASSAY - IC50.

What is called IC50 is the concentration that gives 50% inhibition. The IC90 is the concentration needed for an effect of 90%. Consider `CC(=O)c1sc(SCCS(=O)(=O)c2ccccc2)c2c1CC(C)(C)CC2=O`, for which the IC90 was more than 7.81 µM. The IC50 under setting [1] is more than 7.81 µM.

Regarding `O=C(N/N=C/c1c(-c2ccccc2)nc2sc3c(n12)CCCC3)c1ccccc1`, the IC90 is 0.858 µM. Further, the IC50 (FFLUC_HILL_SLOPE 0.805, FFLUC_R_SQUARED 0.757, PBLUC_HILL_SLOPE 1.27, PBLUC_R_SQUARED 0.855, read-out: LUCIFERASE INFECTION ASSAY - IC50) was found to be 0.153 µM.

On to `Cc1ncsc1CCOC(=O)c1cc(Cl)c2c(c1)OCCO2`, for which the IC90 was more than 10 µM. Further, the IC50 under setting [1] was more than 10 µM.

For the molecule `Cc1ccc(/N=C2\SCC(C)N2C(=O)c2ccccc2SCC(=O)NCC2CCCCC2)c(C)c1` (stereo not drawn), the IC90 is more than 10 µM. The IC50 (FFLUC_HILL_SLOPE 15, FFLUC_R_SQUARED 0.0481, HEPG2TOX_HILL_SLOPE 2.13, HEPG2TOX_R_SQUARED 0.879, PBLUC_HILL_SLOPE 4.29, PBLUC_R_SQUARED 0.235, read-out: LUCIFERASE INFECTION ASSAY - IC50) came to 8.13 µM.

Take `Cc1cccc(N2CCN(C(=O)c3cccc(OCc4c(C)noc4C)c3)CC2)c1C`: the IC90 is more than 10 µM. In addition, the IC50 (HEPG2TOX_HILL_SLOPE 2.27, HEPG2TOX_R_SQUARED 0.832, PBLUC_HILL_SLOPE 9.75, PBLUC_R_SQUARED 0.237, read-out: LUCIFERASE INFECTION ASSAY - IC50) was determined as 9.51 µM.

With `COc1ccc(Nc2cc3[nH]c(-c4cccc(C(F)(F)F)c4)cc3cn2)c(C)c1`, the IC90 was more than 10 µM. Under “HEPG2TOX_HILL_SLOPE 8.02, HEPG2TOX_R_SQUARED 0.0629, PBLUC_HILL_SLOPE 11.9, PBLUC_R_SQUARED 0.386, read-out: LUCIFERASE INFECTION ASSAY - IC50”, the IC50 was 8.34 µM.

As for `COc1ccccc1CNC(=O)c1cc(Cl)ccc1OC`, the IC90 was more than 10.8 µM. For the same molecule, under setting [1], the half-maximal inhibitory concentration (IC50) was more than 10.8 µM.

On to `Cc1ccccc1/N=c1\scc(-c2ccc(Cl)cc2Cl)n1C(C)CCC(C)C` (stereo not drawn), for which the IC90 amounted to 9.57 µM. Moreover, the IC50 (PBLUC_HILL_SLOPE 3.23, PBLUC_R_SQUARED 0.321, read-out: LUCIFERASE INFECTION ASSAY - IC50) came out at 4.85 µM.

In the case of `O=C(NCc1ccc(N2CCCC2=O)cc1)c1cccnc1OCC(F)(F)F`, the IC90 came to 4.11 µM. The IC50 (HEPG2TOX_HILL_SLOPE 1.59, HEPG2TOX_R_SQUARED 0.969, PBLUC_HILL_SLOPE 1.45, PBLUC_R_SQUARED 0.646, read-out: LUCIFERASE INFECTION ASSAY - IC50) came to 0.899 µM.

Take `O=C(CN1CCCCC1)Nc1c(F)cccc1F`: the IC90 was more than 13 µM. Under setting [1], the IC50 was more than 13 µM.

Consider `Cc1cc(C(=O)OCC(=O)NC(=O)NC(C)(C)C)c(C)n1-c1ccccc1`, for which the IC90 was more than 10 µM. Besides, the IC50 (FFLUC_HILL_SLOPE 0.365, FFLUC_R_SQUARED 0.0382, read-out: LUCIFERASE INFECTION ASSAY - IC50) was more than 10 µM.

Take `c1ccc(-c2cc(NCc3cccs3)nc3ccccc23)cc1`: the IC90 is more than 10 µM. The IC50 under setting [1] is more than 10 µM.

As to `CCCNC(=O)C1CN(C(=O)c2oc3ccccc3c2COc2ccccc2)c2ccccc2O1` (stereo not drawn), the IC90 was more than 10 µM. The IC50 (PBLUC_HILL_SLOPE 3.71, PBLUC_R_SQUARED 0.44, read-out: LUCIFERASE INFECTION ASSAY - IC50) stood at 6.61 µM.

Consider `COc1ccc(OC)c(S(=O)(=O)N2[C@@H]3CC[C@@H](C3)[C@H]2c2nc3cccc(OCc4ccccc4)c3[nH]2)c1`, for which the IC90 is more than 10 µM. Besides, under “PBLUC_HILL_SLOPE 10.6, PBLUC_R_SQUARED 0.0638, read-out: LUCIFERASE INFECTION ASSAY - IC50”, the IC50 was more than 10 µM.

Regarding `O=C(COc1ccccc1SCc1ccc(Cl)cc1)NNC(=O)c1ccccc1Cl`, the IC90 was more than 7.15 µM. The IC50 under setting [1] was more than 7.15 µM.

Turning to `Cc1cc(=O)c(C(=O)Nc2cc(C(F)(F)F)ccc2N2CCCCC2)nn1-c1ccccc1Cl`, the concentration for an effect of 90% (IC90) is more than 10 µM. The IC50 under setting [1] is more than 10 µM.

With `CC(NC(=O)c1ccc(S(=O)(=O)C(F)F)cc1)C12CC3CC(CC(C3)C1)C2` (stereo not drawn), the IC90 was more than 10 µM. For the same molecule, the IC50 under setting [1] is more than 10 µM.

For `CCCNC(=O)c1c(NC(=O)c2ccc(CC)cc2)nc2ccccn12`, the IC90 turned out to be 3.4 µM. The IC50 (HEPG2TOX_HILL_SLOPE 3.85, HEPG2TOX_R_SQUARED 0.726, PBLUC_HILL_SLOPE 11.9, PBLUC_R_SQUARED 0.398, read-out: LUCIFERASE INFECTION ASSAY - IC50) amounted to 2.83 µM.

Take `COC(=O)c1c(C)[nH]c(C(=O)Nc2ccc(C)cn2)c1C`: the IC90 came to 2.63 µM. The IC50 (FFLUC_HILL_SLOPE 0.774, FFLUC_R_SQUARED 0.984, PBLUC_HILL_SLOPE 0.487, PBLUC_R_SQUARED 0.641, read-out: LUCIFERASE INFECTION ASSAY - IC50) was 0.0288 µM.

For `CCCCCCCCCCCCSC(=S)c1c(C)[nH]n(-c2ccccc2)c1=O`, the IC90 is more than 7.88 µM. Also, the IC50 under setting [1] is more than 7.88 µM.

`O=C(Nc1ccc(Cl)cc1)Nc1csc([N+](=O)[O-])c1`: the IC90 was 10 µM. For the same molecule, the IC50 (HEPG2TOX_HILL_SLOPE 14.4, HEPG2TOX_R_SQUARED 0.942, PBLUC_HILL_SLOPE 1.2, PBLUC_R_SQUARED 0.682, read-out: LUCIFERASE INFECTION ASSAY - IC50) is 1.62 µM.

Turning to `CCc1ccc(C(=O)C(C)Sc2ccc(S(=O)(=O)N3CCOCC3)cn2)cc1` (stereo not drawn), the IC90 was more than 10 µM. In addition, the half-maximal inhibitory concentration (IC50) under setting [1] is more than 10 µM.

On to `CCOC(=O)c1cnn(-c2ccc(NC(=O)c3sc4nc5n(c(=O)c4c3C)CCC5)cc2)c1C`, for which the IC90 came to 2.97 µM. In addition, for the setting “HEPG2TOX_HILL_SLOPE 2.74, HEPG2TOX_R_SQUARED 0.98, PBLUC_HILL_SLOPE 1.74, PBLUC_R_SQUARED 0.848, read-out: LUCIFERASE INFECTION ASSAY - IC50”, the IC50 was 0.838 µM.

Regarding `CC1CN(C(=O)c2ccc(S(=O)(=O)Nc3ccccc3F)cc2)CC(C)O1` (stereo not drawn), the IC90 was 5.97 µM. In addition, the IC50 (PBLUC_HILL_SLOPE 1.2, PBLUC_R_SQUARED 0.687, read-out: LUCIFERASE INFECTION ASSAY - IC50) was found to be 0.955 µM.

In the case of `N#Cc1cc([N+](=O)[O-])ccc1Sc1nnc(C2COc3ccccc3O2)n1-c1ccccc1` (stereo not drawn), the IC90 was more than 10 µM. Under setting [1], the IC50 is more than 10 µM.

`C/C(=N\NC(=S)NC(C)(C)C)c1ccc(OCc2ncc(C(F)(F)F)cc2Cl)cc1`: the IC90 was 0.938 µM. The IC50 under setting [1] was 0.801 µM.

With `Fc1ccccc1-c1cnn2c(NCc3cccs3)ccnc12`, the IC90 is more than 10.2 µM. For the same molecule, the IC50 (FFLUC_HILL_SLOPE 1.17, FFLUC_R_SQUARED 0.682, PBLUC_HILL_SLOPE 0.51, PBLUC_R_SQUARED 0.639, read-out: LUCIFERASE INFECTION ASSAY - IC50) is 0.238 µM.

For `FC(F)(F)Oc1cccc(-c2nc3ccnc(NCCc4ccncc4)c3[nH]2)c1`, the IC90 is more than 10 µM. Also, the half-maximal inhibitory concentration (IC50) under setting [1] worked out at 3.37 µM.

As to `CCOc1cc(/C=C/C(=O)c2ccc(C)cc2)cc(Br)c1OCC(=O)N(C)C`, the IC90 is 3.89 µM. Also, the IC50 under setting [1] stood at 3.4 µM.

For the molecule `Brc1ccc(C2C(c3nc4ccccc4[nH]3)=C(c3ccccc3)N=C(c3ccccc3)C2c2nc3ccccc3[nH]2)cc1` (stereo not drawn), the IC90 is more than 10 µM. Further, the IC50 under setting [1] is more than 10 µM.

Regarding `CC(=O)Nc1ccc(Nc2cc3[nH]c(-c4cccc(F)c4)cc3cn2)cc1`, the IC90 turned out to be 9.16 µM. The IC50 (PBLUC_HILL_SLOPE 3.2, PBLUC_R_SQUARED 0.299, read-out: LUCIFERASE INFECTION ASSAY - IC50) turned out to be 4.6 µM.

For the molecule `CN(C)c1ccc(-c2cc3c(cn2)nc(NCc2ccccc2F)n3C)cc1`, the IC90 was more than 10 µM. Also, under “HEPG2TOX_HILL_SLOPE 12.8, HEPG2TOX_R_SQUARED 0.633, PBLUC_HILL_SLOPE 3.52, PBLUC_R_SQUARED 0.567, read-out: LUCIFERASE INFECTION ASSAY - IC50”, the IC50 was found to be 5.77 µM.

With `Cc1nc(C2(NC(=O)COc3ccc4ccccc4c3)CCCCC2)no1`, the concentration for an effect of 90% (IC90) is more than 10 µM. Moreover, for the setting “FFLUC_HILL_SLOPE 2.65, FFLUC_R_SQUARED 0.0928, read-out: LUCIFERASE INFECTION ASSAY - IC50”, the IC50 is more than 10 µM.

Turning to `CC(NS(=O)(=O)c1ccc(-n2ncc(Cl)c(Cl)c2=O)cc1)c1ccc2ccccc2c1` (stereo not drawn), the IC90 was 3.82 µM. In addition, the IC50 (FFLUC_HILL_SLOPE 0.605, FFLUC_R_SQUARED 0.525, HEPG2TOX_HILL_SLOPE 11.4, HEPG2TOX_R_SQUARED 0.983, PBLUC_HILL_SLOPE 12.9, PBLUC_R_SQUARED 0.58, read-out: LUCIFERASE INFECTION ASSAY - IC50) was found to be 3.22 µM.

As for `N#C/C(=C(\Oc1ccccc1)C(F)(F)F)c1ccccc1`, the IC90 amounted to 10.9 µM. For the same molecule, the IC50 (HEPG2TOX_HILL_SLOPE 4.45, HEPG2TOX_R_SQUARED 0.985, PBLUC_HILL_SLOPE 11.8, PBLUC_R_SQUARED 0.682, read-out: LUCIFERASE INFECTION ASSAY - IC50) was 9.07 µM.

In the case of `Cc1ccc(Cn2nc(C)c(/C=C/C(=O)N3CCN(S(=O)(=O)c4cccs4)CC3)c2C)cc1`, the IC90 was more than 10 µM. Moreover, the IC50 (HEPG2TOX_HILL_SLOPE 1.48, HEPG2TOX_R_SQUARED 0.941, PBLUC_HILL_SLOPE 12.2, PBLUC_R_SQUARED 0.462, read-out: LUCIFERASE INFECTION ASSAY - IC50) was determined as 9.53 µM.

With `O=C(COC(=O)C1(c2ccccc2F)CCCC1)NC1CCCCCCC1`, the IC90 is more than 10 µM. For the same molecule, the IC50 (PBLUC_HILL_SLOPE 12.1, PBLUC_R_SQUARED 0.29, read-out: LUCIFERASE INFECTION ASSAY - IC50) is more than 10 µM.

For the molecule `O=C(c1cccc2ccccc12)N(c1ccc(F)cc1)c1nc2ccccc2s1`, the IC90 is more than 10 µM. Further, the IC50 (PBLUC_HILL_SLOPE 22.2, PBLUC_R_SQUARED 0.211, read-out: LUCIFERASE INFECTION ASSAY - IC50) turned out to be 9.18 µM.

With `Cc1ccc(-c2nnc(SCC(=O)N3c4ccccc4OCC3c3ccccc3)[nH]2)cc1` (stereo not drawn), the IC90 was more than 10 µM. Also, the IC50 under setting [1] is more than 10 µM.
